From PubChem BioAssay AID284 (DTP/NCI, 2004)
Where “and” joins values, the source holds several entries; their conditions need not be identical. Identical values can stand only once. Toxic doses and inconclusive results are not listed.

Test system: BDF1 mice, L1210/MTX-resistant leukemia ip, survival T/C
Assay: NCI In Vivo Anticancer Drug Screen. Data for tumor model L1210 Leukemia resistant to Methotrexate; NSC 740 (intraperitoneal) in B6D2F1 (BDF1) mice
Settings: endpoint: mean survival time, higher = longer survival
Description: The antitumor activity of compounds was measured in mice bearing transplantable tumors. Survival or tumor size were measured and the results are expressed as the measurement made in the treated group (T) divided by the measurement made in the vehicle treated control group (C). The tumor model used in this assay is L1210 Leukemia resistant to Methotrexate; NSC 740 (intraperitoneal) in B6D2F1 (BDF1) mice

[1] = dose: 8.0 mg/kg/injection, schedule: Q01DX010 (ip), vehicle: saline
[2] = dose: 12.0 mg/kg/injection, schedule: Q01DX010 (ip), vehicle: saline
[3] = dose: 1.5 mg/kg/injection, schedule: Q01DX010 (ip), vehicle: saline
[4] = dose: 3.0 mg/kg/injection, schedule: Q01DX010 (ip), vehicle: saline
[5] = dose: 6.0 mg/kg/injection, schedule: Q01DX010 (ip), vehicle: saline

CC(=O)N(C)C
T/C (dose: 62.5 mg/kg/injection, schedule: Q01DX010 (ip), vehicle: saline): 90 % of control and 98 % of control
T/C (dose: 62.5 mg/kg/injection, schedule: Q01DX Z (ip), vehicle: saline): 106 % of control
T/C (dose: 125.0 mg/kg/injection, schedule: Q01DX010 (ip), vehicle: saline): 102 % of control
T/C (dose: 125.0 mg/kg/injection, schedule: Q01DX Z (ip), vehicle: saline): 122 % of control
T/C (dose: 250.0 mg/kg/injection, schedule: Q01DX010 (ip), vehicle: saline): 93 % of control and 100 % of control
T/C (dose: 500.0 mg/kg/injection, schedule: Q01DX010 (ip), vehicle: saline): 93 % of control
T/C (dose: 500.0 mg/kg/injection, schedule: Q01DX Z (ip), vehicle: saline): 114 % of control and 88 % of control
T/C (dose: 750.0 mg/kg/injection, schedule: Q01DX Z (ip), vehicle: saline): 88 % of control
T/C (dose: 1000.0 mg/kg/injection, schedule: Q01DX Z (ip), vehicle: methylcellulose (MC)): 87 % of control

C[n+]1c2ccccc2nc2c(N)cc(N)cc21
T/C (dose: 3.2 mg/kg/injection, schedule: Q01DX Z (ip), vehicle: other): 101 % of control and 110 % of control
T/C (dose: 6.3 mg/kg/injection, schedule: Q01DX Z (ip), vehicle: other): 116 % of control and 107 % of control
T/C [1]: 122 % of control
T/C [2]: 114 % of control
T/C (dose: 12.5 mg/kg/injection, schedule: Q01DX Z (ip), vehicle: other): 103 % of control and 105 % of control
T/C (dose: 18.0 mg/kg/injection, schedule: Q01DX010 (ip), vehicle: saline): 96 % of control

O=C(Nc1ccc(NC2=NCCN2)cc1)c1ccc(C(=O)Nc2ccc(NC3=NCCN3)cc2)cc1
T/C (dose: 2.0 mg/kg/injection, schedule: Q01DX010 (ip), vehicle: saline): 167 % of control and 219 % of control
T/C (dose: 4.0 mg/kg/injection, schedule: Q01DX010 (ip), vehicle: saline): 248 % of control and 257 % of control
T/C [1]: 188 % of control and 243 % of control
T/C (dose: 16.0 mg/kg/injection, schedule: Q01DX010 (ip), vehicle: saline): 101 % of control and 106 % of control

N=C(N)c1ccc(Nc2ccc(C(=N)N)cc2)cc1
T/C [3]: 101 % of control
T/C [4]: 97 % of control
T/C [5]: 102 % of control
T/C (dose: 7.5 mg/kg/injection, schedule: Q01DX Z (ip), vehicle: water): 98 % of control
T/C [2]: 91 % of control
T/C (dose: 12.5 mg/kg/injection, schedule: Q01DX Z (ip), vehicle: water): 86 % of control

CN(C)c1ccc(/C=C\c2ccnc3ccccc23)cc1
T/C [3]: 97 % of control
T/C [4]: 103 % of control
T/C [5]: 99 % of control

CN(C)CC(=O)c1ccc(O)c(O)c1
T/C (dose: 200.0 mg/kg/injection, schedule: Q01DX010 (ip), vehicle: saline): 117 % of control
T/C (dose: 300.0 mg/kg/injection, schedule: Q01DX010 (ip), vehicle: saline): 109 % of control
T/C (dose: 450.0 mg/kg/injection, schedule: Q01DX010 (ip), vehicle: saline): 104 % of control
T/C (dose: 675.0 mg/kg/injection, schedule: Q01DX010 (ip), vehicle: saline): 111 % of control

OCC1OC(n2cnc3c(=S)nc[nH]c32)C(O)C1O (stereo unspecified)
T/C (dose: 20.0 mg/kg/injection, schedule: Q01DX010 (ip), vehicle: saline): 101 % of control and 102 % of control
T/C (dose: 40.0 mg/kg/injection, schedule: Q01DX010 (ip), vehicle: saline): 91 % of control and 101 % of control
T/C (dose: 80.0 mg/kg/injection, schedule: Q01DX010 (ip), vehicle: saline): 98 % of control
T/C (dose: 160.0 mg/kg/injection, schedule: Q01DX010 (ip), vehicle: saline): 88 % of control and 93 % of control
